From US20240327383A1 (priority 2021, published 2024)
Where “and” joins values, the source holds several entries; their conditions need not be identical. Equal entries are not always repeated.

Tests used:
SNI neuropathic pain [1] = system: SNI neuropathic pain; set-up: species or system rats; details: rat, in vivo
SNI neuropathic pain [2] = system: SNI neuropathic pain; set-up: species or system rats; details: rat, in vivo; remark: listed apart in the source

With NCC1(CC(=O)O)CCCCC1 [Gabapentin] the “mean relative analgesic rate of foot weight bearing” value (SNI neuropathic pain [1]) was 20.85% and 17.55% and 14.07% and the “mean relative analgesic rate of Von Frey Hairs” value (SNI neuropathic pain [2]) was 29.71% and 36.26%.
